Experimental data from PubChem BioAssay (NCI).
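Five compound concentrations were applied to cells in 96-well plates for 48 hours; endpoints were derived by simple linear interpolation of the resulting dose-response curve. Definition used: TGI = concentration required for complete inhibition of growth.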

Tests used:
Experiment in all cases: NCI-60 cell line screen, 48 h
HT29 colon = system: HT29 colon
SN12C renal = system: SN12C renal
U251 CNS = system: U251 CNS
OVCAR-5 ovarian = system: OVCAR-5 ovarian
EKVX NSCLC = system: EKVX NSCLC
DMS 273 small cell lung = system: DMS 273 small cell lung
NCI-H23 lung = system: NCI-H23 lung
SNB-19 CNS = system: SNB-19 CNS
ACHN renal = system: ACHN renal
CAKI-1 renal = system: CAKI-1 renal
HCT-116 colon = system: HCT-116 colon
CCRF-CEM leukemia = system: CCRF-CEM leukemia
UO-31 renal = system: UO-31 renal
SW-620 colon = system: SW-620 colon
DU-145 prostate = system: DU-145 prostate
IGROV1 ovarian = system: IGROV1 ovarian
OVCAR-8 ovarian = system: OVCAR-8 ovarian
LOX IMVI melanoma = system: LOX IMVI melanoma
HL-60(TB) leukemia = system: HL-60(TB) leukemia
SK-MEL-28 melanoma = system: SK-MEL-28 melanoma
SF-268 CNS = system: SF-268 CNS
SF-539 CNS = system: SF-539 CNS
PC-3 prostate = system: PC-3 prostate
HS 578T breast = system: HS 578T breast
A498 renal = system: A498 renal
HCC-2998 colon = system: HCC-2998 colon
UACC-62 melanoma = system: UACC-62 melanoma
M14 melanoma = system: M14 melanoma
DLD-1 colon = system: DLD-1 colon
MOLT-4 leukemia = system: MOLT-4 leukemia
RXF 393 renal = system: RXF 393 renal
MDA-N = system: MDA-N
LXFL 529 NSCLC = system: LXFL 529 NSCLC
NCI/ADR-RES ovarian = system: NCI/ADR-RES ovarian
OVCAR-3 ovarian = system: OVCAR-3 ovarian
SR leukemia = system: SR leukemia
UACC-257 melanoma = system: UACC-257 melanoma
A549 NSCLC = system: A549 NSCLC
SK-OV-3 ovarian = system: SK-OV-3 ovarian
SNB-75 CNS = system: SNB-75 CNS
T-47D breast = system: T-47D breast
HCT-15 colon = system: HCT-15 colon
SK-MEL-5 melanoma = system: SK-MEL-5 melanoma
RXF-631 renal = system: RXF-631 renal
MCF7 breast = system: MCF7 breast
NCI-H460 lung = system: NCI-H460 lung
COLO 205 colon = system: COLO 205 colon
NCI-H226 lung = system: NCI-H226 lung
SK-MEL-2 melanoma = system: SK-MEL-2 melanoma
MDA-MB-435 = system: MDA-MB-435
786-0 renal = system: 786-0 renal
BT-549 breast = system: BT-549 breast
M19-MEL melanoma = system: M19-MEL melanoma
SF-295 CNS = system: SF-295 CNS
NCI-H522 lung = system: NCI-H522 lung
K-562 leukemia = system: K-562 leukemia
XF 498 CNS = system: XF 498 CNS
MALME-3M melanoma = system: MALME-3M melanoma
HOP-92 NSCLC = system: HOP-92 NSCLC
SNB-78 CNS = system: SNB-78 CNS
KM12 colon = system: KM12 colon
MDA-MB-231 breast = system: MDA-MB-231 breast
RPMI-8226 leukemia = system: RPMI-8226 leukemia
HOP-62 NSCLC = system: HOP-62 NSCLC
OVCAR-4 ovarian = system: OVCAR-4 ovarian
DMS 114 small cell lung = system: DMS 114 small cell lung
TK-10 renal = system: TK-10 renal

SMILES: Cn1c2ccccc2c2cc(-c3ccccc3)c3c(c21)C(=O)C=CC3=O
- TGI (HT29 colon): 42.7 µM
- TGI (SN12C renal): 47.2 µM
- TGI (U251 CNS): 39.4 µM
- TGI (OVCAR-5 ovarian): 35.2 µM
- TGI (EKVX NSCLC): > 100 µM
- TGI (DMS 273 small cell lung): 40.6 µM
- TGI (NCI-H23 lung): 42.6 µM
- TGI (SNB-19 CNS): > 100 µM
- TGI (ACHN renal): 41.3 µM
- TGI (CAKI-1 renal): 39.3 µM
- TGI (HCT-116 colon): 41.4 µM
- TGI (CCRF-CEM leukemia): > 48.5 µM
- TGI (UO-31 renal): 42.9 µM
- TGI (SW-620 colon): 33.4 µM
- TGI (DU-145 prostate): > 100 µM
- TGI (IGROV1 ovarian): 64.9 µM
- TGI (OVCAR-8 ovarian): 78.3 µM
- TGI (LOX IMVI melanoma): 34.7 µM
- TGI (HL-60(TB) leukemia): 42.3 µM
- TGI (SK-MEL-28 melanoma): 40.2 µM
- TGI (SF-268 CNS): 77.4 µM
- TGI (SF-539 CNS): 58.3 µM
- TGI (PC-3 prostate): 34.8 µM
- TGI (HS 578T breast): 61.7 µM
- TGI (A498 renal): 48.7 µM
- TGI (HCC-2998 colon): > 88.9 µM
- TGI (UACC-62 melanoma): 44.7 µM
- TGI (M14 melanoma): 47.9 µM
- TGI (DLD-1 colon): 27.7 µM
- TGI (MOLT-4 leukemia): 21.8 µM
- TGI (RXF 393 renal): 31.1 µM
- TGI (MDA-N): 41.8 µM
- TGI (LXFL 529 NSCLC): 18.6 µM
- TGI (NCI/ADR-RES ovarian): > 100 µM
- TGI (OVCAR-3 ovarian): 31.7 µM
- TGI (SR leukemia): 17.5 µM
- TGI (UACC-257 melanoma): 50.9 µM
- TGI (A549 NSCLC): > 100 µM
- TGI (SK-OV-3 ovarian): > 100 µM
- TGI (SNB-75 CNS): 67.1 µM
- TGI (T-47D breast): 49.9 µM
- TGI (HCT-15 colon): 42.1 µM
- TGI (SK-MEL-5 melanoma): > 62.7 µM
- TGI (RXF-631 renal): > 100 µM
- TGI (MCF7 breast): 24.7 µM
- TGI (NCI-H460 lung): 45.5 µM
- TGI (COLO 205 colon): 35.1 µM
- TGI (NCI-H226 lung): 76.7 µM
- TGI (SK-MEL-2 melanoma): 49.9 µM
- TGI (MDA-MB-435): 51.7 µM
- TGI (786-0 renal): 22.7 µM
- TGI (BT-549 breast): 26.5 µM
- TGI (M19-MEL melanoma): 46.6 µM
- TGI (SF-295 CNS): 62.4 µM
- TGI (NCI-H522 lung): 34.5 µM
- TGI (K-562 leukemia): > 70.6 µM
- TGI (XF 498 CNS): 32.1 µM
- TGI (MALME-3M melanoma): 40.2 µM
- TGI (HOP-92 NSCLC): 29.9 µM
- TGI (SNB-78 CNS): > 64.8 µM
- TGI (KM12 colon): 42.2 µM
- TGI (MDA-MB-231 breast): 47.4 µM
- TGI (RPMI-8226 leukemia): 8.61 µM
- TGI (HOP-62 NSCLC): > 76 µM
- TGI (OVCAR-4 ovarian): 41.3 µM
- TGI (DMS 114 small cell lung): 19.8 µM
- TGI (TK-10 renal): 32 µM
